We go through 32 compounds from patent US6528525B1, “Amidocarboxylic acid derivatives” (Sankyo Company, Limited, priority 1998, dated 2003).

The structures appear in SMILES notation.

The test has as its system hyperglycemic male KK mice. As to the kind of experiment: Action in depressing blood glucose (Method 1). The note with it: compound admixed with powder feed at 0.01% (ca. 10 mg/kg/day) for three days, plasma glucose vs control group; for inhibition in vivo at 10 mg/kg/day: Mus musculus, po, 72 h, read-out: Rate of hypoglycemic activity (%) (blood glucose depression rate). Type of test: in vivo. On the procedure: Action in Depressing Blood Glucose (Method 1)
Each compound, admixed with powder feed F-2 (Funabashi Farm) was administered to hyperglycemic male KK mice each having a body weight of 40 g or more at a rate of 0.01% (ca. 10 mg/kg/day) for three days. Meanwhile, mice of a control group were fed with the powder feed only. Then, a blood sample was collected from the caudal vein of each mouse under no anesthesia and centrifuged. The blood glucose in the plasma thus obtained was determined using Glucoloader F (Product of A & T Co., Ltd.).
The blood glucose depression rate were estimated from the following equation:
Blood glucose depression rate (%)=[(Blood glucose in Control group−Blood glucose in administered group)/Blood glucose in Control group]×100

For the compound `CC(C)(C)c1ccc(OC(Cc2ccc(OCCNC(=O)c3ccc(-c4ccccn4)cc3)cc2)C(=O)O)cc1` (centres unmarked) [Example 117, 2-(4-t-Butylphenoxy)-3-[4-[2-(4-pyridine-2-ylbenzoylamino)ethoxy]phenyl]propionic acid], the inhibition in vivo at 10 mg/kg/day is 70%.

As for `COc1ccc(-c2ccc(C(=O)NCCOc3ccc(CC(Oc4ccc(C(C)C)cc4)C(=O)O)cc3)cn2)cc1` (centres unmarked) [Example 99, 2-(4-Isopropylphenoxy)-3-[4-[2-[2-(4-methoxyphenyl)pyridine-5-carbonylamino]ethoxy]phenyl]propionic acid], the inhibition in vivo at 10 mg/kg/day turned out to be 57%.

`CCCCC(Cc1ccc(OCCNC(=O)c2ccc(-c3ccc(C=O)cc3)cc2)cc1)C(=O)O` (centres unmarked) [Example 27, 2-Butyl-3-[4-[2-(4′-formylbiphenyl-4-carbonylamino)ethoxy]phenyl]propionic acid]: the inhibition in vivo at 10 mg/kg/day was 35%.

Turning to `CC(C)c1ccc(OC(Cc2ccc(OCCNC(=O)c3ccc(-c4ccc([N+](=O)[O-])cn4)cc3)cc2)C(=O)O)cc1` (centres unmarked) [Example 109, 2-(4-Isopropylphenoxy)-3-[4-[2-[4-(3-nitropyridine-6-yl)benzoylamino]ethoxy]phenyl]propionic acid], the inhibition in vivo at 10 mg/kg/day stood at 38%.

Turning to `CC(Cc1ccc(OCCNC(=O)c2ccc(-c3ccccn3)cc2)cc1)(Oc1ccccc1)C(=O)O` (centres unmarked) [Example 16, 2-Methyl-2-phenoxy-3-[4-[2-(4-pyridine-2-ylbenzoylamino)ethoxy]phenyl]propionic acid], the inhibition in vivo at 10 mg/kg/day was 64%.

`O=C(NCCOc1ccc(CC(Oc2ccc(F)c(F)c2)C(=O)O)cc1)c1ccc(-c2ccccn2)cc1` (centres unmarked) [Example 141, 2-(3,4-Difluorophenoxy)-3-[4-[2-(4-pyridine-2-ylbenzoylamino)ethoxy]phenyl]propionic acid]: the inhibition in vivo at 10 mg/kg/day amounted to 27%.

As to `COC(=O)C(Cc1ccc(OCCNC(=O)c2ccc(-c3ccccn3)cc2)cc1)Sc1ccccc1` (centres unmarked) [Example 152, Methyl 2-phenylthio-3-[4-[2-(4-pyridine-2-ylbenzoylamino)ethoxy]phenyl]propionate], the inhibition in vivo at 10 mg/kg/day worked out at 58%.

For the compound `O=C(NCCOc1ccc(CC(Oc2ccc(C(F)(F)F)cc2)C(=O)O)cc1)c1ccc(-c2ccccn2)cc1` (centres unmarked) [Example 123, 3-[4-[2-(4-Pyridine-2-ylbenzoylamino)ethoxy]phenyl]-2-(4-trifluoromethylphenoxy)propionic acid], the inhibition in vivo at 10 mg/kg/day stood at 43%.

Consider `O=C(NCCOc1ccc(CC(Oc2c(F)c(F)c(F)c(F)c2F)C(=O)O)cc1)c1ccc(-c2ccccn2)cc1` (centres unmarked) [Example 145, 2-Pentafluorophenoxy-3-[4-[2-(4-pyridine-2-ylbenzoylamino)ethoxy]phenyl]propionic acid], for which the “Rate of hypoglycemic activity (%) (blood glucose depression rate)” value came to 28%.

As to `Cc1ccc(OC(Cc2ccc(OCCNC(=O)c3ccc(-c4ccccn4)cc3)cc2)C(=O)O)cc1` (centres unmarked) [Example 115, 2-(4-Methylphenoxy)-3-[4-[2-(4-pyridine-2-ylbenzoylamino)ethoxy]phenyl]propionic acid], the inhibition in vivo at 10 mg/kg/day worked out at 66%.

In the case of `O=C(NCCOc1ccc(CC(Oc2ccccc2)C(=O)O)cc1)c1ccc(-c2ccc(Cl)cc2)cc1` (centres unmarked) [Example 80, 3-[4-[2-(4′-Chlorobiphenyl-4-carbonylamino)ethoxy]phenyl]-2-phenoxypropionic acid], the inhibition in vivo at 10 mg/kg/day amounted to 50%.

Consider `CCCCC(Cc1ccc(OCCNC(=O)c2ccc(OC)nc2)cc1)C(=O)O` (centres unmarked) [Example 52, 2-Butyl-3-[4-[2-(2-methoxypyridine-5-carbonylamino)ethoxy]phenyl]propionic acid], for which the inhibition in vivo at 10 mg/kg/day was found to be 20%.

Regarding `O=C(NCCOc1ccc(CC(Oc2cc(F)c(F)c(F)c2)C(=O)O)cc1)c1ccc(-c2ccccn2)cc1` (centres unmarked) [Example 143, 2-(3,4,5-Trifluorophenoxy)-3-[4-[2-(4-pyridine-2-ylbenzoylamino)ethoxy]phenyl]propionic acid], the inhibition in vivo at 10 mg/kg/day amounted to 43%.

As for `O=C(NCCOc1ccc(CC(Oc2cccc(F)c2)C(=O)O)cc1)c1ccc(-c2ccccn2)cc1` (centres unmarked) [Example 137, 2-(3-Fluorophenoxy)-3-[4-[2-(4-pyridine-2-ylbenzoylamino)ethoxy]phenyl]propionic acid], the inhibition in vivo at 10 mg/kg/day is 49%.

Consider `CC(C)c1ccc(OC(Cc2ccc(OCCNC(=O)c3ccc(-c4ccccc4)nc3)cc2)C(=O)O)cc1` (centres unmarked) [Example 97, 2-(4-Isopropylphenoxy)-3-[4-[2-(2-phenylpyridine-5-carbonylamino)ethoxy]phenyl]propionic acid], for which the inhibition in vivo at 10 mg/kg/day was found to be 66%.

For the compound `O=C(NCCOc1ccc(CC(Oc2ccc(Cl)cc2)C(=O)O)cc1)c1ccc(-c2ccccn2)cc1` (centres unmarked) [Example 121, 2-(4-Chlorophenoxy)-3-[4-[2-(4-pyridine-2-ylbenzoylamino)ethoxy]phenyl]propionic acid], the inhibition in vivo at 10 mg/kg/day is 60%.

`O=C(NCCOc1ccc(CC(CCCc2ccccc2)C(=O)O)cc1)c1ccc(-c2ccccn2)cc1` (centres unmarked) [Example 4, 2-(3-phenylpropyl)-3-[4-[2-(4-pyridine-2-ylbenzoylamino)ethoxy]phenyl]propionic acid]: the inhibition in vivo at 10 mg/kg/day amounted to 15%.

Turning to `COc1ccc(-c2ccc(C(=O)NCCOc3ccc(CC(Oc4ccc(C(C)C)cc4)C(=O)O)cc3)cc2)nc1` (centres unmarked) [Example 111, 2-(4-Isopropylphenoxy)-3-[4-[2-[4-(3-methoxypyridine-6-yl)-benzoylamino]ethoxy]phenyl]propionic acid], the inhibition in vivo at 10 mg/kg/day came out at 70%.

With `O=C(NCCOc1ccc(CC(Oc2ccc(OC(F)(F)F)cc2)C(=O)O)cc1)c1ccc(-c2ccccn2)cc1` (centres unmarked) [Example 127, 3-[4-[2-(4-Pyridine-2-ylbenzoylamino)ethoxy]phenyl]-2-(4-trifluoromethoxyphenoxy)propionic acid], the inhibition in vivo at 10 mg/kg/day worked out at 56%.

For `CCCCC(Cc1ccc(OCCNC(=O)c2ccc(-c3ccccn3)cc2)cc1)C(=O)O` (centres unmarked) [Example 12, 2-butyl-3-[4-[2-(4-pyridine-2-ylbenzoylamino)ethoxy]phenyl]propionic acid], the inhibition in vivo at 10 mg/kg/day was determined as 42%.

For the compound `CCOC(Cc1ccc(OCCNC(=O)c2ccc(-c3ccccn3)cc2)cc1)C(=O)O` (centres unmarked) [Example 2, Sodium 2-ethoxy-3-[4-[2-(4-pyridine-2-ylbenzoylamino)ethoxy]phenyl]propionate], the inhibition in vivo at 10 mg/kg/day was found to be 43%.

For the compound `CC(C)c1ccc(OC(Cc2ccc(OCCNC(=O)c3ccc(-c4ccccn4)cc3)cc2)C(=O)O)cc1` (centres unmarked) [Example 10, 2-(4-isopropylphenoxy)-3-[4-[2-(4-pyridine-2-ylbenzoylamino)ethoxy]phenyl]propionic acid], the inhibition in vivo at 10 mg/kg/day came to 64%.

Consider `CCCCC(Cc1ccc(OCCNC(=O)c2ccc(-c3cccc(OC)c3)cc2)cc1)C(=O)O` (centres unmarked) [Example 32, 2-Butyl-3-[4-[2-(3′-methoxybiphenyl-4-carbonylamino)ethoxy]phenyl]propionic acid], for which the inhibition in vivo at 10 mg/kg/day was found to be 21%.

With `CC(C)c1ccc(OC(Cc2ccc(OCCNC(=O)c3ccc(-c4ccc(C(F)(F)F)cn4)cc3)cc2)C(=O)O)cc1` (centres unmarked) [Example 107, 2-(4-isopropylphenoxy)-3-[4-[2-[4-(3-trifluoromethylpyridine-6-yl)benzoylamino]ethoxy]phenyl]propionic acid], the inhibition in vivo at 10 mg/kg/day was 38%.

For the compound `CCCCC(Cc1ccc(OCCNC(=O)c2ccc(-c3cc(C)c(O)c(C)c3)cc2)cc1)C(=O)O` (centres unmarked) [Example 48, Sodium 2-butyl-3-[4-[2-(4′-hydroxy-3′, 5′-dimethylbiphenyl-4-carbonylamino)ethoxy]phenyl]propionate], the inhibition in vivo at 10 mg/kg/day was found to be 37%.

As to `CC(C)c1ccc(OC(Cc2ccc(OCCNC(=O)c3ccc(-c4ccc(F)cc4)nc3)cc2)C(=O)O)cc1` (centres unmarked) [Example 101, 3-[4-[2-[2-(4-Fluorophenyl)pyridine-5-carbonylamino]ethoxy]phenyl]-2-(4-isopropylphenoxy)propionic acid], the inhibition in vivo at 10 mg/kg/day is 51%.

For the compound `O=C(NCCOc1ccc(CC(Oc2cc(F)cc(F)c2)C(=O)O)cc1)c1ccc(-c2ccccn2)cc1` (centres unmarked) [Example 139, 2-(3,5-Difluorophenoxy)-3-[4-[2-(4-pyridine-2-ylbenzoylamino)ethoxy]phenyl]propionic acid], the inhibition in vivo at 10 mg/kg/day worked out at 23%.

As to `CCCCC(Cc1ccc(OCCNC(=O)c2ccc(-c3ccccc3OC)cc2)cc1)C(=O)O` (centres unmarked) [Example 43, 2-Butyl-3-[4-[2-(2′-methoxybiphenyl-4-carbonylamino)ethoxy]phenyl]propionic acid], the inhibition in vivo at 10 mg/kg/day came out at 20%.

Take `CCCCC(Cc1ccc(OCCNC(=O)c2ccc(-c3ccc(CN(C)C)cc3)cc2)cc1)C(=O)O` (centres unmarked) [Example 29, 2-Butyl-3-[4-[2-(4′-dimethylaminomethylbiphenyl-4-carbonyl-amino)ethoxy]phenyl]propionic acid]: the inhibition in vivo at 10 mg/kg/day stood at 20%.

On to `CCCCC(Cc1ccc(OCCNC(=O)c2ccc(-c3cccc(O)c3)cc2)cc1)C(=O)O` (centres unmarked) [Example 34, 2-Butyl-3-[4-[2-(3′-hydroxybiphenyl-4-carbonylamino)ethoxy]phenyl]propionic acid], for which the inhibition in vivo at 10 mg/kg/day was 22%.

As to `CCCCC(Cc1ccc(OCCNC(=O)c2ccc(-c3ccccc3)cc2)cc1)C(=O)O` (centres unmarked) [Example 22, 3-[4-[2-(Biphenyl-4-carbonylamino)ethoxy]phenyl]-2-butylpropionic acid], the inhibition in vivo at 10 mg/kg/day came to 17%.

Consider `COc1ccc(OC(Cc2ccc(OCCNC(=O)c3ccc(-c4ccccn4)cc3)cc2)C(=O)O)cc1` (centres unmarked) [Example 125, 2-(4-Methoxyphenoxy)-3-[4-[2-(4-pyridine-2-ylbenzoylamino)ethoxy]phenyl]propionic acid], for which the inhibition in vivo at 10 mg/kg/day worked out at 54%.
